The test deals with T1, AsPC-1 HiBiT-KRASG12D (Homo sapiens, UniProt P01116, G12D).
T1 construct: insert the HiBiT tag onto the N-terminus of one or more of the endogenous KRAS alleles; endogenous in cells; host or cells: AsPC-1 (ATCC CRL-1682), CRISPR-Cas9 knock-in clone, one tagged allele
Kind of test: HiBiT degradation assay (G12D), AsPC-1 HiBiT-KRASG12D cells. In kind it is cell-based. As to conditions: 24 hours treatment; for Dmax: ASPC1, AsPC-1 HiBiT-KRASG12D cells, maximum degradation observed; for DC50: AsPC-1 HiBiT-KRASG12D cells, HiBiT luminescence. In a few lines: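 24 h cmpd treatment, 37° C/5% CO2, AsPC-1 HiBiT-KRASG12D clone (CRISPR N-term tag). Alamar blue 1×, 4 h, fluorescence. PBS wash, Nano-Glo HiBiT lytic reagent, 45 min RT, luminescence. Triplicates.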
(With HiBiT, luminescence reflects the tagged protein that the partner subunit can reach.)

Some results are limits rather than exact numbers.

Broadly, the Dmax is the greatest extent of degradation seen. Lower therefore signals shallow degradation. For orientation: DC50 means the midpoint of the concentration-degradation curve. A low value points to degradation at low concentration.

T1 sequence (P01116 1-188 isoform P01116-2 G12D): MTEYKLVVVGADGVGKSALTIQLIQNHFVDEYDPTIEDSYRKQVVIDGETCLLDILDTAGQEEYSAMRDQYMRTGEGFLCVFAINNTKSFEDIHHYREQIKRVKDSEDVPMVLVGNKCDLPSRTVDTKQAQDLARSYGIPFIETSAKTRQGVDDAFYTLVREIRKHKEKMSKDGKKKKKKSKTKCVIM

In the case of `CCc1cccc2cc(O)cc(-c3ncc4c(N5CC6CCC(C5)N6)nc(OCCN5CCC(CN6CCN(c7cc([C@H](C(=O)N8C[C@H](O)C[C@H]8C(=O)N[C@@H](C)c8ccc(-c9scnc9C)cc8)C(C)C)on7)CC6)CC5)nc4c3F)c12` [Compound 211, (2S,4R)-1-[(2R)-2-(3-{4-[(1-{2-[(4-{3,8-diazabicyclo[3.2.1]octan-3-yl}-7-(8-ethyl-3-hydroxynaphthalen-1-yl)-8-fluoropyrido[4,3-d]pyrimidin-2-yl)oxy]ethyl}piperidin-4-yl)methyl]piperazin-1-yl}-1,2-oxazol-5-yl)-3-methylbutanoyl]-4-hydroxy-N-[(1S)-1-[4-(4-methyl-1,3-thiazol-5-yl)phenyl]ethyl] pyrrolidine-2-carboxamide], the greatest degradation seen (Dmax) was in the range of 80 to 100% and the 50% degradation concentration (DC50) is less than 600 nM.
The molecule `CCc1cccc2cc(O)cc(-c3ncc4c(N5CC6CCC(C5)N6)nc(OCCN5CC[C@@H]6[C@@H](CCN6c6cc([C@@H](C(=O)N7C[C@H](O)C[C@H]7C(=O)N[C@@H](C)c7ccc(-c8scnc8C)cc7)C(C)C)on6)C5)nc4c3F)c12` (relative stereo) [Compound 76, (2S,4R)-1-[(2R*)-2-{3-[(3aR**,7aR***)-5-{2-[(4-{3,8-diazabicyclo[3.2.1]octan-3-yl}-7-(8-ethyl-3-hydroxynaphthalen-1-yl)-8-fluoropyrido[4,3-d]pyrimidin-2-yl)oxy]ethyl}-octahydro-1H-pyrrolo[3,2-c]pyridin-1-yl]-1,2-oxazol-5-yl}-3-methylbutanoyl]-4-hydroxy-N-[(1S)-1-[4-(4-methyl-1,3-thiazol-5-yl)phenyl]ethyl]pyrrolidine-2-carboxamide] registered a Dmax of 20 to 60% and a DC50 of 1000 to 3000 nM.
For `CCc1cccc2cc(O)cc(-c3ncc4c(N5CC6CCC(C5)N6)nc(OCCN5CCC(C6CN(c7cc([C@H](C(=O)N8C[C@H](O)C[C@H]8C(=O)N[C@@H](C)c8ccc(-c9scnc9C)cc8)C(C)C)on7)C6)CC5)nc4c3F)c12` (single isomer, unassigned) [Compound 275], in that order: 80 to 100% and less than 600 nM.
The molecule `CCc1cccc2cc(O)cc(-c3ncc4c(N5CC6CCC(C5)N6)nc(O[C@H](C)CN5CCC(COc6cc([C@H](C(=O)N7C[C@H](O)C[C@H]7C(=O)N[C@@H](C)c7ccc(-c8scnc8C)cc7)C(C)C)on6)CC5)nc4c3F)c12` [Compound 101, (2S,4R)-1-[(2R)-2-[3-({1-[(2R)-2-[(4-{3,8-diazabicyclo[3.2.1]octan-3-yl}-7-(8-ethyl-3-hydroxynaphthalen-1-yl)-8-fluoropyrido[4,3-d]pyrimidin-2-yl)oxy]propyl]piperidin-4-yl}methoxy)-1,2-oxazol-5-yl]-3-methylbutanoyl]-4-hydroxy-N-[(1S)-1-[4-(4-methyl-1,3-thiazol-5-yl)phenyl]ethyl]pyrrolidine-2-carboxamide] had a Dmax of 60 to 80% and a DC50 of less than 600 nM.
In turn, `CCc1cccc2cc(O)cc(-c3ncc4c(N5CC6CCC(C5)N6)nc(OCCN5CCC(CN6CC7(C6)CN(c6cc([C@H](C(=O)N8C[C@H](O)C[C@H]8C(=O)N[C@@H](C)c8ccc(-c9scnc9C)cc8)C(C)C)on6)C7)CC5)nc4c3F)c12` [Compound 235, (2S,4R)-1-[(2R)-2-[3-[6-[1-[2-[[4-(3,8-diazabicyclo[3.2.1]octan-3-yl)-7-(8-ethyl-3-hydroxy-1-naphthyl)-8-fluoro-pyrido[4,3-d]pyrimidin-2-yl]oxyethyl]-4-piperidyl]methyl]-2,6-diazaspiro[3.3]heptan-2-yl]isoxazol-5-yl]-3-methyl-butanoyl]-4-hydroxy-N-[(1S)-1-[4-(4-methylthiazol-5-yl)phenyl]ethyl]pyrrolidine-2-carboxamide] showed a Dmax of 80 to 100% and a DC50 of less than 600 nM.
On to `C#Cc1c(F)ccc2cc(O)cc(-c3ncc4c(N5CC6CCC(C5)N6)nc(OC[C@@]56CCCN5[C@H](COc5cc([C@H](C(=O)N7C[C@H](O)C[C@H]7C(=O)N[C@@H](C)c7ccc(-c8scnc8C)cc7)C(C)C)on5)CC6)nc4c3F)c12` [Compound 314, (2S,4R)-1-[(2R)-2-[3-[[(3S,8S)-8-[[4-(3,8-diazabicyclo[3.2.1]octan-3-yl)-7-(8-ethynyl-7-fluoro-3-hydroxy-1-naphthyl)-8-fluoro-pyrido[4,3-d]pyrimidin-2-yl]oxymethyl]-1,2,3,5,6,7-hexahydropyrrolizin-3-yl]methoxy]isoxazol-5-yl]-3-methyl-butanoyl]-4-hydroxy-N-[(1S)-1-[4-(4-methylthiazol-5-yl)phenyl]ethyl]pyrrolidine-2-carboxamide], for which the maximal degradation (Dmax) was in the range of 80 to 100% and the half-maximal degradation concentration (DC50) was less than 600 nM.
As to `CCc1cccc2cc(O)cc(-c3ncc4c(N5CC6CCC(C5)N6)nc(OC[C@@H]5CN(CC6CN(c7cc([C@@H](C(=O)N8C[C@H](O)C[C@H]8C(=O)N[C@@H](C)c8ccc(-c9scnc9C)cc8)C(C)C)on7)C6)CCN5C)nc4c3F)c12` [Compound 164, (2S,4R)-1-[(2S)-2-[3-(3-{[(3S)-3-{[(4-{3,8-diazabicyclo[3.2.1]octan-3-yl}-7-(8-ethyl-3-hydroxynaphthalen-1-yl)-8-fluoropyrido[4,3-d]pyrimidin-2-yl)oxy]methyl}-4-methylpiperazin-1-yl]methyl}azetidin-1-yl)-1,2-oxazol-5-yl]-3-methylbutanoyl]-4-hydroxy-N-[(1S)-1-[4-(4-methyl-1,3-thiazol-5-yl)phenyl]ethyl]pyrrolidine-2-carboxamide], the Dmax lay in the range of 20 to 60% and the DC50 is greater than 3000 nM.
For `CCc1cccc2cc(O)cc(-c3ncc4c(N5CC6CCC(C5)N6)nc(OCCN5CCC6(CC5)CN(c5cc([C@H](C(=O)N7C[C@H](O)C[C@H]7C(=O)N[C@@H](C)c7ccc(-c8ccnn8C)cc7)C(C)C)on5)C6)nc4c3F)c12` (relative stereo) [Compound 140, (2S,4R)-1-[(2R*)-2-[3-(7-{2-[(4-{3,8-diazabicyclo[3.2.1]octan-3-yl}-7-(8-ethyl-3-hydroxynaphthalen-1-yl)-8-fluoropyrido[4,3-d]pyrimidin-2-yl)oxy]ethyl}-2,7-diazaspiro[3.5]nonan-2-yl)-1,2-oxazol-5-yl]-3-methylbutanoyl]-4-hydroxy-N-[(1S)-1-[4-(1-methyl-1H-pyrazol-5-yl)phenyl]ethyl]pyrrolidine-2-carboxamide], the Dmax lay in the range of 80 to 100% and the 50% degradation concentration (DC50) was less than 600 nM.
As to `CCc1cccc2cc(O)cc(-c3ncc4c(N5CC6CCC(C5)N6)nc(OC[C@]56CCCN5C[C@H](Oc5cc([C@@H](C(=O)N7C[C@H](O)C[C@H]7C(=O)N[C@@H](C)c7ccc(-c8scnc8C)cc7)C(C)C)on5)CC6)nc4c3F)c12` [Compound 319, (2S,4R)-1-[(2S)-2-[3-[[(6R,8aR)-8a-[[4-(3,8-diazabicyclo[3.2.1]octan-3-yl)-7-(8-ethyl-3-hydroxy-1-naphthyl)-8-fluoro-pyrido[4,3-d]pyrimidin-2-yl]oxymethyl]-2,3,5,6,7,8-hexahydro-1H-indolizin-6-yl]oxy]isoxazol-5-yl]-3-methyl-butanoyl]-4-hydroxy-N-[(1S)-1-[4-(4-methylthiazol-5-yl)phenyl]ethyl]pyrrolidine-2-carboxamide], the Dmax is 60 to 80% and the DC50 lay within 1000 to 3000 nM.
In turn, `CCc1cccc2cc(O)cc(-c3ncc4c(N5CC6CCC(C5)N6)nc(OCCN5C[C@@H]6CN(c7cc(C(C(=O)N8C[C@H](O)C[C@H]8C(=O)N[C@@H](C)c8ccc(-c9scnc9C)cc8)C(C)C)on7)C[C@@H]6C5)nc4c3F)c12` (single isomer, unassigned) [Compound 79, (2S,4R)-1-[(2R*)-2-{3-[(3aR,6aS)-5-{2-[(4-{3,8-diazabicyclo[3.2.1]octan-3-yl}-7-(8-ethyl-3-hydroxynaphthalen-1-yl)-8-fluoropyrido[4,3-d]pyrimidin-2-yl)oxy]ethyl}-octahydropyrrolo[3,4-c]pyrrol-2-yl]-1,2-oxazol-5-yl}-3-methylbutanoyl]-4-hydroxy-N-[(1S)-1-[4-(4-methyl-1,3-thiazol-5-yl)phenyl]ethyl]pyrrolidine-2-carboxamide] came in with a maximal degradation (Dmax) of 80 to 100% and a DC50 of less than 600 nM.
As to `CCc1cccc2cc(O)cc(-c3ncc4c(N5CC6CCC(C5)N6)nc(OCCN5CCC(C(C)(C)N6CCN(c7cc([C@H](C(=O)N8C[C@H](O)C[C@H]8C(=O)N[C@@H](C)c8ccc(-c9scnc9C)cc8)C(C)C)on7)CC6)CC5)nc4c3F)c12` (single isomer, unassigned) [Compound 251, (2S,4R)-1-[(2R*)-2-(3-{4-[2-(1-{2-[(4-{3,8-diazabicyclo[3.2.1]octan-3-yl}-7-(8-ethyl-3-hydroxynaphthalen-1-yl)-8-fluoropyrido[4,3-d]pyrimidin-2-yl)oxy]ethyl}piperidin-4-yl)propan-2-yl]piperazin-1-yl}-1,2-oxazol-5-yl)-3-methylbutanoyl]-4-hydroxy-N-[(1S)-1-[4-(4-methyl-1,3-thiazol-5-yl)phenyl]ethyl] pyrrolidine-2-carboxamide], the maximal degradation (Dmax) lay in the range of 80 to 100% and the DC50 was less than 600 nM.
For `CCc1cccc2cccc(-c3ncc4c(N5CCCCCC5)nc(OC[C@]56CCCN5[C@H](COC(=O)N5CCN(c7cc([C@H](C(=O)N8C[C@H](O)C[C@H]8C(=O)N[C@@H](C)c8ccc(-c9scnc9C)cc8)C(C)C)on7)CC5)CC6)nc4c3F)c12` (relative stereo) [Compound 331], the DC50 was greater than 3000 nM.

The values above are taken from US20250206732A1, “COMPOUNDS AND METHODS FOR THE TARGETED DEGRADATION OF KRAS” (Arvinas Operations, Inc., priority 2022, published 2025).
